Data on two compounds can be found in patent publication US6417225B1, “Prophylactic/therapeutic agents for atherosclerosis” (Chugai Seiyaku Kabushiki Kaisha, priority 1997, dated 2002).

For experiment [1], the system named is Watanabe Heritable Hyperlipidemic (WHHL) rabbits. The experiment in a line: Effect on atherosclerosis in an in vivo atherosclerosis model (1): WHHL rabbits. Also noted: species or system rabbit. The conditions noted are these: for Lesions in arch section (%) / Lesions in the whole aorta (%): 6 months. The text has this:
Effect on Atherosclerosis in an in vivo Atherosclerosis Model (1)
In order to evaluate the inhibitory effect of the compound of Example 1 on atherosclerosis in an in vivo atherosclerosis model, Watanabe Heritable Hyperlipidemic (WHHL) rabbits were used.
Specifically, 4 groups of 4 or 5 WHHL rabbits (Kbl: 2 to 3-month-old male) were conditioned for a week, and then 3 groups of them received 1% probucol and 0.2% and 0.5% Example 1 compound contained in a normal chow diet, respectively, by limited feeding (40 g/kg) once a day for 6 months. The other one group similarly received the normal chow diet containing neither probucol nor the compound of Example 1 and was used as a control.
After administration of the compound for 6 months, the aorta was removed from each of the animals and visualized to prepare a photograph of the inside of the aortic sample. White fat deposition area which represents arteriosclerotic lesions was determined by the image analysis on the photograph for each of three parts of the aortic sample (arch, chest and abdomen). From the results, the proportions (percentage) of the fat deposition area to the overall area for the arch section and the whole aorta were obtained. Four or five animals were used for each group for the evaluation.

For experiment [2], the system named is LDL receptor/apolipoprotein E double hetero-deficient mice. Nature of the experiment: Effect on atherosclerosis in an in vivo atherosclerosis model (3): LDL receptor/Apo E hetero-deficient mice. The conditions noted are these: for Inhibitory effect on arteriosclerosis (in words): LDL receptor/Apo E hetero-deficient mice; for Area of Arteriosclerotic lesions (mm^2): female mice, 0.5% in high-fat diet, 6 months, arcus aorta. The source says: Effect on Atherosclerosis in an in vivo Atherosclerosis Model (3)
In order to evaluate the inhibitory effect of the compound of Example 1 on atherosclerosis in an in vivo atherosclerosis model, LDL receptor/apolipoprotein E double hetero-deficient (LDL receptor/Apo E hetero-deficient) mice were used.
One of the remaining two groups similarly received a high-fat feed containing neither probucol nor the compound of Example 1 and was used as a control and the other one group similarly received a normal, chow diet containing neither probucol nor the compound of Example 1.
After administration of the compound for 6 months, the arcus aorta was removed from each of the animals, transversely sectioned and stained with Sudan IV. The area of arteriosclerotic lesions was determined by an image analysis under an optical microscope. The average of the area of arteriosclerotic lesions in the aucus aortae was calculated for each animal. The number of animals used for the evaluation was 2 for the normal feed group and 5-6 for the other groups.

The test system of experiment [3] is LDL receptor-deficient mice. Nature of the experiment: Effect on formation of xanthoma in an in vivo xanthoma model. The conditions noted are these: for Inhibitory effect on formation of xanthomas (in words): LDL receptor-deficient mice; for Xanthoma score: 0.5% in high-fat diet, 13 weeks, forefeet and palpebrae, total score. The text has this:
Effect on Formation of Xanthoma in an in vivo Xanthoma Model
In order to evaluate the inhibitory effect of the compound of Example 1 on xanthoma in an in vivo xanthoma model, LDL receptor-deficient mice were used.
One of the remaining two groups similarly received a high-fat feed containing neither probucol nor the compound of Example 1 and was used as a control and the other one group similarly received a normal, chow diet feed containing neither probucol nor the compound of Example 1.
After administration of the compound for 13 weeks, xanthomas were scored in both forefeet and palpebrae based on the appearance thereof and the scores were totalized. The number of animals used for the evaluation was 5 for the normal feed group consisting of female mice and 7-9 for the other groups.

Experiment [4] has as its system LDL receptor-deficient mice. The experiment in a line: Effect on atherosclerosis in an in vivo atherosclerosis model (2): LDL receptor-deficient mice. The conditions noted are these: for Inhibitory effect on arteriosclerosis (in words): LDL receptor-deficient mice; for Area of Arteriosclerotic lesions (mm^2): 0.5% in high-fat diet, 13 weeks, arcus aorta. The text has this: Effect on Atherosclerosis in an in vivo Atherosclerosis Model (2)
In order to evaluate the inhibitory effect of the compound of Example 1 on atherosclerosis in an in vivo atherosclerosis, LDL receptor-deficient mice were used.
One of the remaining two groups similarly received a high-fat diet containing neither probucol nor the compound of Example 1 and was used as a control and the other one group similarly received a normal, chow diet containing neither probucol nor the compound of Example 1.
After administration of the compound for 13 weeks, the arcus aorta was removed from each of the animals, transversely sectioned and stained with Sudan IV. The area of arteriosclerotic lesions was determined by an image analysis under an optical microscope. The average of the area of arteriosclerotic lesions in the aucus aortae was calculated for each animal. The number of animals used for the evaluation was 5 for the normal chow diet group consisting of female mice and 7-9 for the other groups.

Another experiment relates to femoral atheroscleroses. The conditions noted are these: literature report; cited from earlier work.

Regarding `CCCCCC1(CCCCC)Cc2c(cc(C(C)(C)C)c(O)c2C(C)(C)C)O1` [Example 1, 4,6-di-t-butyl-2,2-di-n-pentyl-5-hydroxy-2,3-dihydrobenzofuran], in experiment [1], the “Inhibitory effect on atherosclerosis (in words)” value was “strong inhibitory effect”. Also, the “Lesions in arch section (%)” value in experiment [1] (0.2% in normal chow diet) turned out to be 65.7 ± 3.7%; in experiment [1] (0.5% in normal chow diet), 52.6 ± 7.4 %. The “Lesions in the whole aorta (%)” value in experiment [1] (0.2% in normal chow diet) stood at 44.3 ± 6.8 %; in experiment [1] (0.5% in normal chow diet), 37.4 ± 5.7 %. For the same compound, the “Atherosclerosis inhibitory effect compared with probucol (in words)” value in experiment [1] (at a half of the dosage of probucol) is “comparable to that of probucol”. Further, the “Inhibitory effect on arteriosclerosis (in words)” value is given as “strong inhibitory effect” in experiment [2] and “exhibits an inhibitory effect” in experiment [4]. The “Area of Arteriosclerotic lesions (mm^2)” value is recorded as 0.150 mm^2 in experiment [2], 0.192 mm^2 in experiment [4] (female mice) and 0.185 mm^2 in experiment [4] (male mice). Further, in experiment [3], the “Inhibitory effect on formation of xanthomas (in words)” value is reported as “strong inhibitory effect”. In addition, the Xanthoma score in experiment [3] (female mice) amounted to 1.25 ± 0.25; in experiment [3] (male mice), 0.29 ± 0.20.
As for `CC(C)(Sc1cc(C(C)(C)C)c(O)c(C(C)(C)C)c1)Sc1cc(C(C)(C)C)c(O)c(C(C)(C)C)c1` [Probucol, probucol, reference compound], the “Therapeutic effect on atherosclerosis in clinical tests (in words)” value with femoral atheroscleroses is “no therapeutic effect”. In experiment [1] (1% in normal chow diet), the “Lesions in the whole aorta (%)” value was found to be 25.2 ± 2.6 %. Also, the “Lesions in arch section (%)” value in experiment [1] (1% in normal chow diet, fat deposition area / overall area) was determined as 53.9 ± 5.6 %. For the same compound, the “Inhibitory effect on arteriosclerosis (in words)” value in experiment [2] and in experiment [4] was “not observed” each time. Moreover, the “Area of Arteriosclerotic lesions (mm^2)” value came to 0.451 mm^2 in experiment [2], 0.245 mm^2 in experiment [4] (female mice) and 0.376 mm^2 in experiment [4] (male mice). Moreover, in experiment [3], the “Inhibitory effect on formation of xanthomas (in words)” value is “not observed”. For the same compound, the Xanthoma score in experiment [3] (female mice) is 3.43 ± 0.30; in experiment [3] (male mice) it was 3.13 ± 0.30.
